# Values of other authors as cited in US12004493B2, “Late-onset Alzheimer's disease animal model and uses thereof” (The Board of Regents of the University of Oklahoma, priority 2018, dated 2024).
# Test system: early-phase AD patients
# Settings: DAO inhibitor
smiles,measurement,value
O=C([O-])c1ccccc1.[Na+] [Sodium benzoate],cognitive and overall functions,improved cognitive and overall functions
